Like-named read-outs stand apart in the source and are kept apart here. Starred links: 1 amine or outer side, 2 acyl side, 3 side chain; linkers in the order of their positions; H or OH if unused. Positions of bridges follow the written chain, without caps; N, C: chain ends. Non-standard residues stand in square brackets, D forms with d. Residues, ends and D or L forms follow the SMILES beside them. *: point of attachment. NMedβ3hAla = C[C@H](CC(=O)[*:2])N(C)[*:1]; NMeF = CN[C@@H](Cc1ccccc1)C(=O)O; NMeGABA = CN(CCCC(=O)[*:2])[*:1]; NMeI = CC[C@H](C)[C@H](NC)C(=O)O; NMeT = CN[C@H](C(=O)O)[C@@H](C)O; NMeD = CN[C@@H](CC(=O)O)C(=O)O; NMeL = CN[C@@H](CC(C)C)C(=O)O; NMeV = CN[C@H](C(=O)O)C(C)C; NMeAbu = CC[C@H](NC)C(=O)O; NMeA = CN[C@@H](C)C(=O)O; Piperidide = C1CCN(*)CC1; dNMeA = CN[C@H](C)C(=O)O; Abu = CC[C@H](N)C(=O)O; βAla = NCCC(=O)O; Sar = CNCC(=O)O; tBu = CC(C)(C)*
Legend:
[1] = Metabolic stability test: liver microsomal stability assay; type: in vitro ADME, mouse; details: for microsomal CLint at 1 µM: male, pH 7.4, presence of NADPH, read-out: Mouse Hepatic Microsome CLh,int NADPH(+)
[2] = test system: Caco-2 cells; assay: Membrane permeability test using Caco-2 cells with preincubation; type: in vitro ADME
[3] = as above; type: in vitro ADME; details: Caco-2
[4] = mouse liver microsomes 0.5 mg protein/mL, compound 1 µM
[5] = mouse liver microsomes 0.5 mg protein/mL, compound 1 µM, absence of NADPH
[6] = Caco-2 cells, preincubation 20 to 24 hours, apical FaSSIF/HBSS 1% DMSO pH 6.0, basal HBSS 4% BSA pH 7.4, basal sample at 180 minutes
[7] = preincubation 20 to 24 hours, Apical FaSSIF/HBSS pH 6.0, Basal HBSS 4% BSA pH 7.4, 180 minutes, read-out: Caco2 Papp

| microsomal CLint at 1 µM [1, 4] [µL/min/mg] | Mouse Hepatic Microsome CLh,int NADPH(-) [1, 5] [µL/min/mg Protein] | Caco2 Papp (10^-6 cm/sec) [2, 6] | Papp A→B [3, 7] [×10⁻⁶ cm/s] | Mouse Hepatic Microsome CLh,int NADPH(-) [1] [µL/min/mg Protein] | Caco2 Papp (10^-6 cm/sec) ([2]; Caco-2) | Papp A→B [3] [×10⁻⁶ cm/s] | Compound |
| --- | --- | --- | --- | --- | --- | --- | --- |
| 19.3 | 13.7 | 0.44 10^-6 cm/sec | 0.44 |  |  |  | CC(C)C[C@@H]1NC(=O)[C@H](CC(C)C)N(C)C(=O)[C@H]([C@@H](C)O)NC(=O)[C@H](C(C)C)N(C)C(=O)[C@H](Cc2ccccc2)N(C)C(=O)[C@@H](C(C)C)NC(=O)C[C@@H](C(=O)N2CCCCC2)N(C)C(=O)[C@H](C)N(C)C(=O)[C@H](Cc2ccccc2)N(C)C(=O)[C@H](C)NC(=O)[C@H](COC(C)(C)C)NC(=O)[C@H](CC(C)C)N(C)C(=O)CN(C)C1=O [pd158] ([dV][NMeF][NMeV]T[NMeL]L[Sar][NMeL]S(tBu)A[NMeF][NMeA][NMeD]-Piperidide; lactam N-13) |
| 31.1 | 33.0 | <0.11 10^-6 cm/sec | < 0.11 |  |  |  | CC(C)C[C@@H]1NC(=O)[C@@H]2CCCN2C(=O)[C@H](C(C)C)N(C)C(=O)[C@H](C)NC(=O)[C@H](CC(C)C)N(C)C(=O)[C@@H](C(C)C)NC(=O)C[C@@H](C(=O)N2CCCCC2)NC(=O)[C@H](C(C)C)N(C)C(=O)[C@H](C)NC(=O)[C@H](CC(C)C)N(C)C(=O)[C@H](C(C)C)NC(=O)[C@H](COC(C)(C)C)NC(=O)[C@H](CC(C)C)N(C)C(=O)[C@H](Cc2ccccc2)N(C)C1=O [pd014] ([dV][NMeL]A[NMeV]PL[NMeF][NMeL]S(tBu)V[NMeL]A[NMeV]D-Piperidide; lactam N-14) |
| 15.2 | 4.2 | 0.29 10^-6 cm/sec | 0.29 |  |  |  | CC[C@H]1C(=O)N(C)[C@H](C)CC(=O)N(C)[C@H](C)C(=O)N(C)[C@@H](C)C(=O)N(C)[C@@H](Cc2ccccc2)C(=O)N[C@@H](C(C)C)C(=O)N(C)[C@@H](CC(C)C)C(=O)N(C)[C@@H]([C@@H](C)O)C(=O)N(C)CC(=O)N[C@@H](C)C(=O)N(C)[C@@H](CC(C)C)C(=O)N[C@@H](COC(C)(C)C)C(=O)N(C)[C@@H](Cc2ccccc2)C(=O)N1C [pd150] (cyclo(A[NMeL]S(tBu)[NMeF][NMeAbu][NMedβ3hAla][dNMeA][NMeA][NMeF]V[NMeL][NMeT][Sar])) |
|  |  |  |  | 24.1 | <0.11 10^-6 cm/sec | < 0.11 | CC[C@@H]1NC(=O)[C@H](CC(C)C)N(C)C(=O)CCNC(=O)[C@H](Cc2ccccc2)N(C)C(=O)[C@H](Cc2ccccc2)N(C)C(=O)CNC(=O)[C@H]([C@@H](C)CC)NC(=O)[C@H](CC(C)C)N(C)C(=O)CCCN(C)C(=O)C[C@@H](C)N(C)C(=O)[C@H](CC(C)C)NC(=O)[C@H]([C@@H](C)CC)NC(=O)[C@H](C)N(C)C(=O)[C@H](C(C)C)NC1=O [pd062] (cyclo([Abu]V[NMeA]IL[NMedβ3hAla][NMeGABA][NMeL]IG[NMeF][NMeF][βAla][NMeL])) |
| 25.6 | 29.2 | <0.10 10^-6 cm/sec | < 0.1 |  |  |  | CC[C@H](C)[C@@H]1NC(=O)[C@H](Cc2ccccc2)N(C)C(=O)[C@H]([C@@H](C)O)N(C)C(=O)[C@H]([C@@H](C)CC)N(C)C(=O)[C@H](CC(C)C)NC(=O)CN(C)C(=O)[C@H](CC)N(C)C(=O)[C@H](Cc2ccccc2)N(C)C(=O)[C@H](COC(C)(C)C)NC(=O)[C@H](CC(C)C)N(C)C(=O)[C@H](CC(C)C)NC(=O)[C@H](C)N(C)C(=O)C[C@@H](C(=O)N2CCCCC2)N(C)C(=O)[C@H](CC(C)C)N(C)C1=O [pd095] ([NMeA]L[NMeL]S(tBu)[NMeF][NMeAbu][Sar]L[NMeI][NMeT][NMeF]I[NMeL][NMeD]-Piperidide; lactam N-14) |
| 38.2 | 36.6 | 0.02 10^-6 cm/sec | 0.02 |  |  |  | CC[C@H](C)[C@@H]1NC(=O)[C@H](CC(C)C)N(C)C(=O)C[C@@H](C(=O)N2CCCCC2)NC(=O)[C@H](Cc2ccccc2)N(C)C(=O)[C@H](C(C)C)NC(=O)[C@@H]2CCCN2C(=O)[C@H]([C@@H](C)CC)NC(=O)[C@H](CC)N(C)C(=O)[C@H](C(C)C)N(C)C(=O)[C@H](CC(C)C)NC(=O)[C@H](CC(C)C)N(C)C(=O)[C@H]([C@@H](C)O)NC(=O)[C@H](Cc2ccccc2)NC(=O)CN(C)C1=O [pd029] ([NMeL]I[Sar]FT[NMeL]L[NMeV][NMeAbu]IPV[NMeF]D-Piperidide; lactam N-14) |
| 40.7 | 34.8 | 0.16 10^-6 cm/sec | 0.16 |  |  |  | CC[C@H](C)[C@@H]1NC(=O)[C@@H]2CCCN2C(=O)[C@H](CC(C)C)N(C)C(=O)[C@H](CC(C)C)NC(=O)[C@H]([C@@H](C)CC)N(C)C(=O)[C@H]([C@@H](C)O)NC(=O)[C@H](Cc2ccccc2)N(C)C(=O)[C@H](CC)N(C)C(=O)[C@H](Cc2ccccc2)N(C)C(=O)[C@H](C(C)C)NC(=O)[C@H](CC(C)C)N(C)C(=O)[C@H](C)N(C)C(=O)C[C@@H](C(=O)N2CCCCC2)NC(=O)[C@H](C(C)C)N(C)C1=O [pd043] ([NMeA][NMeL]V[NMeF][NMeAbu][NMeF]T[NMeI]L[NMeL]PI[NMeV]D-Piperidide; lactam N-14) |

From patent publication EP4768499A1, “MACROCYCLIC PEPTIDE COMPOUND HAVING CELL MEMBRANE PERMEABILITY AND METABOLIC STABILITY, AND LIBRARY CONTAINING SAME” (Chugai Seiyaku Kabushiki Kaisha, priority 2023, dated 2025)
